Test results from PMC9090415, “Discovery of small molecule inhibitors of Plasmodium falciparum apicoplast DNA polymerase” (Journal of Enzyme Inhibition and Medicinal Chemistry, 2022).

Molecular target: P. falciparum apicoplast DNA polymerase (Pf-apPOL) (Plasmodium falciparum, UniProt Q8ILY1)
Test: Fluorescence-based high-throughput DNA polymerase assay (molecular beacon), primary screen and dose-response
Assay type: biochemical
Conditions: for DNA Pol: 90 min, 10 µM
In short: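 Single-point screening used 10 µM compound with 20 nM polymerase, 20 nM hairpin substrate and 6 µM dNTPs for 90 min at 25 °C. Confirmatory titrations (2.5–80 µM) followed fluorescence at three times, and IC50 was derived from a fit including a cooperativity term n.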

[1] = primary screen value of the 186 hits, unit not given
[2] = primary screen value, head "DNA Pol", unit not given

Chain of P. falciparum apicoplast DNA polymerase (Pf-apPOL) (Q8ILY1 entry or part of it): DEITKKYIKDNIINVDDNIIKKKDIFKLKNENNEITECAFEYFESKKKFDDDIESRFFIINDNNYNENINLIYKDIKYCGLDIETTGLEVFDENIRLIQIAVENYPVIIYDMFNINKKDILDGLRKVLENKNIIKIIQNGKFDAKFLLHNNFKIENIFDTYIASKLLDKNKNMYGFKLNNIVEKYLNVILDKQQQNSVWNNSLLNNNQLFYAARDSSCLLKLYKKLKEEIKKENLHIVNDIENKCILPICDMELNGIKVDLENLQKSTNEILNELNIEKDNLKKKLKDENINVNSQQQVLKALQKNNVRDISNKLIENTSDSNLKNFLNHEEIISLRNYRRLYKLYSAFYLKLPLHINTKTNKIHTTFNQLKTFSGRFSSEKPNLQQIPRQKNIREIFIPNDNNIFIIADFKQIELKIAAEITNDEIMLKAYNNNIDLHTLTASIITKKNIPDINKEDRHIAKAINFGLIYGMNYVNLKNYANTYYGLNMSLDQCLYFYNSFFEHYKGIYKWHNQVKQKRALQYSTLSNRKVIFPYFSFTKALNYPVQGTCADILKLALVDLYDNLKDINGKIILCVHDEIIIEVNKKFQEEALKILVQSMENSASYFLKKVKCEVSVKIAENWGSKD

Cc1cc(C)c2c(O)nc(SCC(=O)c3ccc(O)c(O)c3)nc2n1 [Molecule 88, Cc1cc(C)c2c(n1)nc(nc2O)SCC(=O)c1ccc(c(c1)O)O]
% inhibition Apo pol 10' (DRC-1, concentration 2.5): 66.1048% | % inhibition Apo pol 10' (DRC-1, concentration 5): 84.19% | % inhibition Apo pol 10' (DRC-1, concentration 10): 90.4679% | % inhibition Apo pol 10' (DRC-1, concentration 20): 96.9488% | % inhibition Apo pol 10' (DRC-1, concentration 40): 98.8856% | % inhibition Apo pol 10' (DRC-1, concentration 80): 98.1462% | % inhibition Apol 90' (DRC-1, 90', concentration 2.5): 42.8406% | % inhibition Apol 90' (DRC-1, 90', concentration 5): 64.0677% | % inhibition Apol 90' (DRC-1, 90', concentration 10): 76.3822% | % inhibition Apol 90' (DRC-1, 90', concentration 20): 90.5503% | % inhibition Apol 90' (DRC-1, 90', concentration 40): 93.4235% | % inhibition Apol 90' (DRC-1, 90', concentration 80): 90.6466% | % inhibition apPOL 180' (DRC-1, 180', concentration 2.5): 28.0012% | % inhibition apPOL 180' (DRC-1, 180', concentration 5): 48.1017% | % inhibition apPOL 180' (DRC-1, 180', concentration 10): 62.9235% | % inhibition apPOL 180' (DRC-1, 180', concentration 20): 84.8942% | % inhibition apPOL 180' (DRC-1, 180', concentration 40): 86.2556% | % inhibition apPOL 180' (DRC-1, 180', concentration 80): 82.2791% | % inhibition Apol 40' (DRC-2, 40', concentration 10 (unit not given)): 63% | % inhibition Apol 40' (DRC-2, 40', concentration 20 (unit not given)): 71% | % inhibition Apol 40' (DRC-2, 40', concentration 80 (unit not given)): 54% | % inhibition ApPOL 90' (DRC-2, 90', concentration 10 (unit not given)): 63% | % inhibition ApPOL 90' (DRC-2, 90', concentration 20 (unit not given)): 71% | % inhibition ApPOL 90' (DRC-2, 90', concentration 40 (unit not given)): 71% | % inhibition apPOL 180' (DRC-2, 180', concentration 10 (unit not given)): 54% | % inhibition apPOL 180' (DRC-2, 180', concentration 20 (unit not given)): 63% | % inhibition apPOL 180' (DRC-2, 180', concentration 40 (unit not given)): 63% | % inhibition Apo pol 5' (DRC-2, 5', concentration 2.5): 35% | % inhibition Apo pol 5' (DRC-2, 5', concentration 5): 43% | % inhibition Apo pol 5' (DRC-2, 5', concentration 10): 50% | % inhibition Apo pol 5' (DRC-2, 5', concentration 20): 55% | % inhibition Apo pol 5' (DRC-2, 5', concentration 40): 58% | % inhibition Apo pol 5' (DRC-2, 5', concentration 80): 31% | % inhibition Apol 40' (DRC-2, 40', concentration 2.5): 32% | % inhibition Apol 40' (DRC-2, 40', concentration 5): 45% | % inhibition Apol 40' (DRC-2, 40', concentration 10): 63% | % inhibition Apol 40' (DRC-2, 40', concentration 20): 71% | % inhibition Apol 40' (DRC-2, 40', concentration 40): 72% | % inhibition Apol 40' (DRC-2, 40', concentration 80): 54% | % inhibition ApPOL 90' (DRC-2, 90', concentration 2.5): 28% | % inhibition ApPOL 90' (DRC-2, 90', concentration 5): 42% | % inhibition ApPOL 90' (DRC-2, 90', concentration 10): 63% | % inhibition ApPOL 90' (DRC-2, 90', concentration 20): 71% | % inhibition ApPOL 90' (DRC-2, 90', concentration 40): 71% | % inhibition ApPOL 90' (DRC-2, 90', concentration 80): 56% | % inhibition apPOL 180' (DRC-2, 180', concentration 2.5): 18% | % inhibition apPOL 180' (DRC-2, 180', concentration 5): 27% | % inhibition apPOL 180' (DRC-2, 180', concentration 10): 54% | % inhibition apPOL 180' (DRC-2, 180', concentration 20): 63% | % inhibition apPOL 180' (DRC-2, 180', concentration 40): 63% | % inhibition apPOL 180' (DRC-2, 180', concentration 80): 53% | DNA Pol [1]: 85 | DNA Pol [2]: 85

COCC(=O)Nc1c(-c2cccc(F)c2)nc2cc(C)ccn12 [Molecule 44, COCC(=O)Nc1c(nc2n1ccc(c2)C)c1cccc(c1)F]
% inhibition Apo pol 10' (DRC-1, concentration 2.5): 6.785% | % inhibition Apo pol 10' (DRC-1, concentration 5): 30.033% | % inhibition Apo pol 10' (DRC-1, concentration 10): 50.0286% | % inhibition Apo pol 10' (DRC-1, concentration 20): 55.8788% | % inhibition Apo pol 10' (DRC-1, concentration 40): 80.2368% | % inhibition Apo pol 10' (DRC-1, concentration 80): 83.5036% | % inhibition Apol 90' (DRC-1, 90', concentration 2.5): 1.502% | % inhibition Apol 90' (DRC-1, 90', concentration 5): 18.1602% | % inhibition Apol 90' (DRC-1, 90', concentration 10): 35.5455% | % inhibition Apol 90' (DRC-1, 90', concentration 20): 42.2252% | % inhibition Apol 90' (DRC-1, 90', concentration 40): 74.869% | % inhibition Apol 90' (DRC-1, 90', concentration 80): 86.4562% | % inhibition apPOL 180' (DRC-1, 180', concentration 2.5): -2.445% | % inhibition apPOL 180' (DRC-1, 180', concentration 5): 8.4449% | % inhibition apPOL 180' (DRC-1, 180', concentration 10): 23.452% | % inhibition apPOL 180' (DRC-1, 180', concentration 20): 30.1351% | % inhibition apPOL 180' (DRC-1, 180', concentration 40): 67.7953% | % inhibition apPOL 180' (DRC-1, 180', concentration 80): 86.4237% | % inhibition Apo pol 5' (DRC-2, 5', concentration 2.5): 10% | % inhibition Apo pol 5' (DRC-2, 5', concentration 5): 29% | % inhibition Apo pol 5' (DRC-2, 5', concentration 10): 41% | % inhibition Apo pol 5' (DRC-2, 5', concentration 20): 50% | % inhibition Apo pol 5' (DRC-2, 5', concentration 40): 52% | % inhibition Apo pol 5' (DRC-2, 5', concentration 80): 45% | % inhibition Apol 40' (DRC-2, 40', concentration 2.5): 9% | % inhibition Apol 40' (DRC-2, 40', concentration 5): 27% | % inhibition Apol 40' (DRC-2, 40', concentration 10): 40% | % inhibition Apol 40' (DRC-2, 40', concentration 20): 59% | % inhibition Apol 40' (DRC-2, 40', concentration 40): 69% | % inhibition Apol 40' (DRC-2, 40', concentration 80): 69% | % inhibition ApPOL 90' (DRC-2, 90', concentration 2.5): 8% | % inhibition ApPOL 90' (DRC-2, 90', concentration 5): 24% | % inhibition ApPOL 90' (DRC-2, 90', concentration 10): 38% | % inhibition ApPOL 90' (DRC-2, 90', concentration 20): 58% | % inhibition ApPOL 90' (DRC-2, 90', concentration 40): 73% | % inhibition ApPOL 90' (DRC-2, 90', concentration 80): 74% | % inhibition apPOL 180' (DRC-2, 180', concentration 2.5): 3.16% | % inhibition apPOL 180' (DRC-2, 180', concentration 5): 15% | % inhibition apPOL 180' (DRC-2, 180', concentration 10): 27% | % inhibition apPOL 180' (DRC-2, 180', concentration 20): 51% | % inhibition apPOL 180' (DRC-2, 180', concentration 40): 73% | % inhibition apPOL 180' (DRC-2, 180', concentration 80): 77% | % inhibition Apol 40' (conc. 5, 40', DRC-2): 27% | % inhibition apPOL 180' (conc. 10, 180', DRC-2): 27% | % inhibition Apol 40' (conc. 40, 40', DRC-2): 69% | % inhibition ApPOL 90' (conc. 40, 90', DRC-2): 73% | % inhibition apPOL 180' (conc. 40, 180', DRC-2): 73% | % inhibition Apol 40' (conc. 80, 40', DRC-2): 69% | DNA Pol (primary screen value by plate and well): 43 | DNA Pol [1]: 43

NS(=O)(=O)c1ccc(NC(=O)c2ccc(N3C(=O)CCC3=O)cc2)cc1 [KU0025331]
% inhibition Apo pol 10' (DRC-1, concentration 2.5): 3.929% | % inhibition Apo pol 10' (DRC-1, concentration 5): 17.6449% | % inhibition Apo pol 10' (DRC-1, concentration 10): 35.7836% | % inhibition Apo pol 10' (DRC-1, concentration 20): 51.7902% | % inhibition Apo pol 10' (DRC-1, concentration 40): 82.955% | % inhibition Apo pol 10' (DRC-1, concentration 80): 86.1018% | % inhibition Apol 90' (DRC-1, 90', concentration 2.5): -2.372% | % inhibition Apol 90' (DRC-1, 90', concentration 5): 7.062% | % inhibition Apol 90' (DRC-1, 90', concentration 10): 19.6888% | % inhibition Apol 90' (DRC-1, 90', concentration 20): 33.4355% | % inhibition Apol 90' (DRC-1, 90', concentration 40): 69.7509% | % inhibition Apol 90' (DRC-1, 90', concentration 80): 83.6402% | % inhibition apPOL 180' (DRC-1, 180', concentration 2.5): -7.42% | % inhibition apPOL 180' (DRC-1, 180', concentration 5): -1.0806% | % inhibition apPOL 180' (DRC-1, 180', concentration 10): 6.657% | % inhibition apPOL 180' (DRC-1, 180', concentration 20): 15.4098% | % inhibition apPOL 180' (DRC-1, 180', concentration 40): 52.8887% | % inhibition apPOL 180' (DRC-1, 180', concentration 80): 79.9389% | % inhibition Apo pol 5' (DRC-2, 5', concentration 2.5 (unit not given)): 8% | % inhibition Apol 40' (DRC-2, 40', concentration 2.5 (unit not given)): 8% | % inhibition Apol 40' (DRC-2, 40', concentration 40 (unit not given)): 67% | % inhibition ApPOL 90' (DRC-2, 90', concentration 80 (unit not given)): 67% | % inhibition Apo pol 5' (DRC-2, 5', concentration 2.5): 8% | % inhibition Apo pol 5' (DRC-2, 5', concentration 5): 15% | % inhibition Apo pol 5' (DRC-2, 5', concentration 10): 23% | % inhibition Apo pol 5' (DRC-2, 5', concentration 20): 40% | % inhibition Apo pol 5' (DRC-2, 5', concentration 40): 46% | % inhibition Apo pol 5' (DRC-2, 5', concentration 80): 37% | % inhibition Apol 40' (DRC-2, 40', concentration 2.5): 8% | % inhibition Apol 40' (DRC-2, 40', concentration 5): 13% | % inhibition Apol 40' (DRC-2, 40', concentration 10): 21% | % inhibition Apol 40' (DRC-2, 40', concentration 20): 47% | % inhibition Apol 40' (DRC-2, 40', concentration 40): 67% | % inhibition Apol 40' (DRC-2, 40', concentration 80): 64% | % inhibition ApPOL 90' (DRC-2, 90', concentration 2.5): 5.53% | % inhibition ApPOL 90' (DRC-2, 90', concentration 5): 9% | % inhibition ApPOL 90' (DRC-2, 90', concentration 10): 17% | % inhibition ApPOL 90' (DRC-2, 90', concentration 20): 42% | % inhibition ApPOL 90' (DRC-2, 90', concentration 40): 68% | % inhibition ApPOL 90' (DRC-2, 90', concentration 80): 67% | % inhibition apPOL 180' (DRC-2, 180', concentration 2.5): -4.26% | % inhibition apPOL 180' (DRC-2, 180', concentration 5): -1.74% | % inhibition apPOL 180' (DRC-2, 180', concentration 10): 4.49% | % inhibition apPOL 180' (DRC-2, 180', concentration 20): 26% | % inhibition apPOL 180' (DRC-2, 180', concentration 40): 65% | % inhibition apPOL 180' (DRC-2, 180', concentration 80): 72% | DNA Pol [1]: 32 | DNA Pol [2]: 32
